Measurements from patent US12471596B2 (priority 2019, dated 2025).

Key:
Phytophthora infestans [1] = test: whole plant or invertebrate; assay type: in vivo, Phytophthora infestans on tomato plants; details: in Solanum lycopersicum, 24 h, read-out: control compared to the untreated check
Plasmopara viticola = test: Example B: Plasmopara viticola test in grape (greenhouse, preventive); assay type: in vivo; details: 24 h, grape seedlings sprayed one day before inoculation, disease severity rating, read-out: control compared to the untreated check
Description: Example B: Plasmopara viticola Test in Grape
The compound were dissolved in 2% DMSO/Acetone & then mixed with water containing emulsifier to a calibrated spray volume of 50 mL. The spray solutions were poured into spray bottles for further applications.
To test the preventive activity of compounds, 5 week old healthy grape seedlings, cv. Thompson seedless, raised in the greenhouse, were sprayed with the active compound preparation at the stated application rates inside spray cabinets using hallow cone nozzles. One day after treatment, the plants were inoculated with an inoculum suspension (sterile water) containing 6×10^4 Plasmopara viticola inoculum. The inoculated plants were then kept in a greenhouse chamber at 18-21° C. temperature and 95-100% relative humidity for disease expression.
A visual assessment of the performance of the compound was carried out by rating the disease severity (0-100% scale) on treated plants 3, 7 and 10 days after application. Efficacy (% control) of the compound was calculated by comparing the disease rating in the treatment with the one of the untreated control. The compounds were also assessed for their plant compatibility by recording symptoms like necrosis, chlorosis & stunting

Phytophthora infestans [2] = test: microbe, parasite or virus in culture; assay type: cell-based; details: in Secale cereale, 168 h, read-out: control compared to the untreated check

N#Cc1ccnc(OCC(=O)N2CCC(c3nc(C4=NOC(c5c(F)cccc5Cl)C4)cs3)CC2)n1 (stereo not drawn) [Compound 118, 2-(2-(4-(4-(5-(2-chloro-6-fluorophenyl)-4,5-dihydroisoxazol-3-yl)thiazol-2-yl)piperidin-1-yl)-2-oxoethoxy)pyrimidine-4-carbonitrile]
≥ 70%: pest or weed control at 50 ppm (Phytophthora infestans [1]) | pest or weed control at 50 ppm (Plasmopara viticola) | inhibition of growth at 30 ppm (Phytophthora infestans [2])

N#Cc1ccnc(OCC(=O)N2CCC(c3nc(C4=NOC(c5c(Cl)cccc5C(F)(F)F)C4)cs3)CC2)n1 (stereo not drawn) [Compound 114, 2-(2-(4-(4-(5-(2-chloro-6-(trifluoromethyl)phenyl)-4,5-dihydroisoxazol-3-yl)thiazol-2-yl)piperidin-1-yl)-2-oxoethoxy)pyrimidine-4-carbonitrile]
≥ 70%: pest or weed control at 50 ppm (Phytophthora infestans [1]) | pest or weed control at 50 ppm (Plasmopara viticola) | inhibition of growth at 30 ppm (Phytophthora infestans [2])

O=C(COc1nccnc1C(F)(F)F)N1CCC(c2nc(C3=NOC(c4c(Cl)cccc4Cl)C3)cs2)CC1 (stereo not drawn) [Compound 3, 1-(4-(4-(5-(2,6-dichlorophenyl)-4,5-dihydroisoxazol-3-yl)thiazol-2-yl)piperidin-1-yl)-2-((3-(trifluoromethyl)pyrazin-2-yl)oxy)ethan-1-one]
≥ 70%: pest or weed control at 50 ppm (Phytophthora infestans [1]) | pest or weed control at 50 ppm (Plasmopara viticola) | inhibition of growth at 30 ppm (Phytophthora infestans [2])

COc1cncc(OCC(=O)N2CCC(c3nc(C4=NOC(c5c(F)cccc5Br)C4)cs3)CC2)n1 (stereo not drawn) [Compound 120, 1-(4-(4-(5-(2-bromo-6-fluorophenyl)-4,5-dihydroisoxazol-3-yl)thiazol-2-yl)piperidin-1-yl)-2-((6-methoxypyrazin-2-yl)oxy)ethan-1-one]
≥ 70%: pest or weed control at 50 ppm (Phytophthora infestans [1]) | pest or weed control at 50 ppm (Plasmopara viticola) | inhibition of growth at 30 ppm (Phytophthora infestans [2])

O=C(COc1nccnc1Cl)N1CCC(c2nc(C3=NOC(c4c(Cl)cccc4Cl)C3)cs2)CC1 (stereo not drawn) [Compound 124, 2-((3-chloropyrazin-2-yl)oxy)-1-(4-(4-(5-(2,6-dichlorophenyl)-4,5-dihydroisoxazol-3-yl)thiazol-2-yl)piperidin-1-yl)ethan-1-one]
≥ 70%: pest or weed control at 50 ppm (Phytophthora infestans [1]) | pest or weed control at 50 ppm (Plasmopara viticola) | inhibition of growth at 30 ppm (Phytophthora infestans [2])

CS(=O)(=O)Oc1cccc(Cl)c1C1CC(c2csc(C3CCN(C(=O)COc4nccc(C#N)n4)CC3)n2)=NO1 (stereo not drawn) [Compound 113, 3-chloro-2-(3-(2-(1-(2-((4-cyanopyrimidin-2-yl)oxy)acetyl)piperidin-4-yl)thiazol-4-yl)-4,5-dihydroisoxazol-5-yl)phenyl methanesulfonate]
≥ 70%: pest or weed control at 50 ppm (Phytophthora infestans [1]) | pest or weed control at 50 ppm (Plasmopara viticola) | inhibition of growth at 30 ppm (Phytophthora infestans [2])

O=C(COc1nccnc1Cl)N1CCC(c2nc(C3=NOC(c4c(F)cccc4Br)C3)cs2)CC1 (stereo not drawn) [Compound 121, 1-(4-(4-(5-(2-bromo-6-fluorophenyl)-4,5-dihydroisoxazol-3-yl)thiazol-2-yl)piperidin-1-yl)-2-((3-chloropyrazin-2-yl)oxy)ethan-1-one]
≥ 70%: pest or weed control at 50 ppm (Phytophthora infestans [1]) | pest or weed control at 50 ppm (Plasmopara viticola) | inhibition of growth at 30 ppm (Phytophthora infestans [2])

O=C(COc1nccnc1C(F)(F)F)N1CCC(c2nc(C3=NOC(c4c(F)cccc4Cl)C3)cs2)CC1 (stereo not drawn) [Compound 1, 1-(4-(4-(5-(2-chloro-6-fluorophenyl)-4,5-dihydroisoxazol-3-yl)thiazol-2-yl)piperidin-1-yl)-2-((3-(trifluoromethyl)pyrazin-2-yl)oxy)ethan-1-one]
≥ 70%: pest or weed control at 50 ppm (Phytophthora infestans [1]) | pest or weed control at 50 ppm (Plasmopara viticola) | inhibition of growth at 30 ppm (Phytophthora infestans [2])

N#Cc1ccnc(OCC(=O)N2CCC(c3nc(C4=NOC(c5c(F)cccc5F)C4)cs3)CC2)n1 (stereo not drawn) [Compound 116, 2-(2-(4-(4-(5-(2,6-difluorophenyl)-4,5-dihydroisoxazol-3-yl)thiazol-2-yl)piperidin-1-yl)-2-oxoethoxy)pyrimidine-4-carbonitrile]
≥ 70%: pest or weed control at 50 ppm (Phytophthora infestans [1]) | pest or weed control at 50 ppm (Plasmopara viticola) | inhibition of growth at 30 ppm (Phytophthora infestans [2])

N#Cc1ccnc(OCC(=O)N2CCC(c3nc(C4=NOC(c5c(Cl)cccc5Cl)C4)cs3)CC2)n1 (stereo not drawn) [Compound 112, 2-(2-(4-(4-(5-(2,6-dichlorophenyl)-4,5-dihydroisoxazol-3-yl)thiazol-2-yl)piperidin-1-yl)-2-oxoethoxy)pyrimidine-4-carbonitrile]
≥ 70%: pest or weed control at 50 ppm (Phytophthora infestans [1]) | pest or weed control at 50 ppm (Plasmopara viticola) | inhibition of growth at 30 ppm (Phytophthora infestans [2])

O=C(COc1nccnc1Cl)N1CCC(c2nc(C3=NOC(c4c(F)cccc4F)C3)cs2)CC1 (stereo not drawn) [Compound 122, 2-((3-chloropyrazin-2-yl)oxy)-1-(4-(4-(5-(2,6-difluorophenyl)-4,5-dihydroisoxazol-3-yl)thiazol-2-yl)piperidin-1-yl)ethan-1-one]
≥ 70%: pest or weed control at 50 ppm (Phytophthora infestans [1]) | pest or weed control at 50 ppm (Plasmopara viticola) | inhibition of growth at 30 ppm (Phytophthora infestans [2])
